# According to patent US11235001B2, “RUNX inhibitor” (KYOTO UNIVERSITY, priority 2016, dated 2022):
# Like-named read-outs stand apart in the source and are kept apart here.
# Tests used:
# [1] = tested on: HUVEC (human umbilical vein endothelial cell line); assay: Proliferation of HUVEC; assay type: cell-based
# [2] = tested on: IL3, CSF2 and CSF2RB; assay: qRT-PCR of RUNX1 target genes in MV4-11 cells; assay type: cell-based, human; settings: 5 μM, 6 hours
# [3] = Acute toxicological testing in NOG mice; assay type: in vivo, mouse
# Procedure: To check the pharmacological safety of the PI polyamide conjugates in vivo, acute toxicological testing of Chb-M′ in mice was first performed. NOD/Shi-scid,IL-2RγKO (NOG) mice were injected with Chb-M′ at various concentrations. Complete blood cell counts, blood biochemistry and body weight were measured (n=5).
# [4] = tested on: A549 cells; assay: Xenograft lung cancer mouse model (A549); assay type: in vivo
# [5] = tested on: BCR-ABL fusion protein; assay: Western blotting of BCR-ABL fusion protein in CML and PhALL cells; assay type: cell-based, human; settings: 3 μM or 1 μM, 24 hours
# Procedure: Cells were washed twice with ice cold phosphate-buffered saline (PBS) and harvested in protein lysis buffer [50 mM Tris (pH 7.4), 100 mM NaCl, 0.1 mM EDTA, 1 mM phenylmethylsulfonyl fluoride, 1 mM β-glycerophosphate, 2.5 mM sodium pyrophosphate, 1 mM Na3VO4, lx protease inhibitor (Roche) and PhosSTOP (Roche)]. Whole cell extracts were separated by SDS-polyacrylamide gel electrophoresis (SDS-PAGE) and electrotransferred onto polyvinylidene difluoride membranes. Membranes were probed with the following antibodies: anti-Ctip1 antibody (Abcam, ab19487), anti-TRIM24 antibody (Bethyl Laboratories, Inc), anti-RUNX1 antibody (A-2), anti-GAPDH (FL-335), anti-p21 (C-19), anti-Bax (N-20) antibodies (Santa Cruz Biotechnology, Inc.), anti-RUNX2, anti-RUNX3, anti-p53 antibodies (Cell Signaling Technology), anti-CBFβ antibody (FL-182, Santa Cruz Biotechnology, Inc.), anti-cleaved caspase-3 antibody (5A1E, Cell Signaling Technology), anti-PARP antibody (46D11, Cell Signaling Technology). For secondary antibodies, anti-rabbit IgG, or anti-mosue IgG HRP-linked antibodies (Cell Signaling Technology) were used. Blots were detected using Chemi-Lumi One Super (nacalai tesque, Inc.) and ChemiDoc™ XRS+ Imager (Bio-Rad Laboratories, Inc.), as recommended by the manufacturers. Protein levels were quantified with Image Lab Software (Bio-Rad Laboratories, Inc.).
# To BV173 cells, MYL cells, SU-Ph2 cells, and SU/SR cells, 3 μM or 1 μM of Chb-M′ were administered. After 24 hours, proteins were extracted, and then subjected to the Western blotting method (see the above-described “Immunoblotting”) using an ABL antibody to confirm expressions of BCR-ABL fusion protein at protein levels. As a control, DMSO was administered.
# [6] = tested on: c-kit, phospho-c-Kit, AKT, phosphorylated AKT, Mitf; assay: Western blot of KIT signalling, HMC-1.2 mast cells; assay type: cell-based, human; settings: HMC-1.2, 10 μM, 18 hours
# Procedure: Cells were washed twice with ice cold phosphate-buffered saline (PBS) and harvested in protein lysis buffer [50 mM Tris (pH 7.4), 100 mM NaCl, 0.1 mM EDTA, 1 mM phenylmethylsulfonyl fluoride, 1 mM β-glycerophosphate, 2.5 mM sodium pyrophosphate, 1 mM Na3VO4, lx protease inhibitor (Roche) and PhosSTOP (Roche)]. Whole cell extracts were separated by SDS-polyacrylamide gel electrophoresis (SDS-PAGE) and electrotransferred onto polyvinylidene difluoride membranes. […] Blots were detected using Chemi-Lumi One Super (nacalai tesque, Inc.) and ChemiDoc™ XRS+ Imager (Bio-Rad Laboratories, Inc.), as recommended by the manufacturers. Protein levels were quantified with Image Lab Software (Bio-Rad Laboratories, Inc.).
# To the LAD2 cell line and the HMC-1.2 cell line, 10 μM Chb-M′ was administered. After culturing the cells for 18 hours, extracts were obtained from the cells, and the protein expression levels of c-kit, phospho-c-Kit, AKT, phosphorylated AKT, Mitf, and GAPDH were analyzed by the Western blot analysis (see the above-described “Immunoblotting”) using different antibodies. […]
# [7] = tested on: p53 mutated cells; assay: Concomitant use with p53 inducer MIRA-1 in p53 mutated cells; assay type: cell-based, human; settings: compared with the PRIMA-1 experiments (synergistic inhibition)
# Procedure: We examined the effect of concomitant use of the conjugates and a p53 inducer. […] KG1a and HL60 cells are null for p53 (p53null cell lines). MV4-11NR, Kasumi-1 and THP-1 cells harbor mutated p53 (p53mut(+) cell lines).
# Further, the same experiments were performed using a p53 inducer MIRA-1 and the same results were obtained. Although the PI polyamide conjugates of the present invention may greatly reduce their potency in p53 mutated cells (cancer cells harboring mutated p53 or no p53), concomitant use with a p53 inducer enables suppression of such p53 mutated cells.
# [8] = tested on: THP-1; settings: THP-1, p53mut(+); for IC50: 48 hours
# [9] = tested on: p53-mutated colon cancer cell line HT29; settings: HT29, 72 hours
# [10] = tested on: PC-3 cells; settings: read-out: IC50 (μM) in PC-3 cells; PC-3 (p53null/PTEN del/androgen-independent), 48 hours
# [11] = tested on: LNCaP cells; settings: read-out: IC50 (μM) in LNCaP cells; LNCaP (androgen-dependent), 48 hours
# [12] = tested on: NB4 (p53MT)
# [13] = tested on: UF1 (p53Null)
smiles,measurement,setting,value
CN(C)CCCNC(=O)c1cc(NC(=O)c2cc(NC(=O)c3cc(NC(=O)c4cc(NC(=O)CCCNC(=O)c5nc(NC(=O)c6nc(NC(=O)c7cc(NC(=O)c8nc(NC(=O)CCNC(=O)CCCc9ccc(N(CCCl)CCCl)cc9)cn8C)cn7C)cn6C)cn5C)cn4C)cn3C)cn2C)cn1C [Chb-M′],IC50,[1],≥ 50000 nM
same,"Expressions of RUNX1 target genes (IL3, CSF2, and CSF2RB), mRNA",[2],effectively inhibited
same,10 mg/kg dose relative to the amount necessary to gain medicinal effect,[3],more than thirty times higher
same,Tolerability in vivo,[3],highly tolerable
same,Platelets counts,[3]; 10 mg/kg body weight injection,slight decrease
same,Effect on the lung cancer model,[4]; A549 xenograft,inhibited the growth
same,H&E staining of lung tissue (lung cancer cells in pulmonary alveoli),[4]; day 14 after transplantation,rather diminished
same,"Brightness of luciferase (IVIS), lung","[4]; day 14 after transplantation, after 2 administrations",rather weakened
same,Bioluminescence signal intensity vs DMSO or gefitinib,[4]; day 21 after transplantation,far lower
same,"Brightness of luciferase (IVIS), lung","[4]; day 21 after transplantation, after total 4 administrations",further weakened
same,Lengthening of overall survival periods,"[4]; mice with gefitinib-resistant A549, 320 μg/kg IV twice a week from day 7",about 2 times
same,p210BCR-ABL fusion protein,[5]; BV173 cells,lost
same,p210BCR-ABL fusion protein,[5]; MYL cells,lost
same,p190BCR-ABL fusion protein,[5]; SU-Ph2 cells,lost
same,p190BCR-ABL fusion protein,[5]; SU/SR cells,lost
same,Expression levels of c-kit and phospho-c-Kit,[6],suppressed
same,pAKT amount of protein,[6],slight decrease
same,Effect of concomitant use with p53 inducer MIRA-1 on cell proliferation,[7],same results
same,CI (Fa = 0.5),"[8]; concomitant use of Chb-M′ and PRIMA-1, Chou-Talalay, CI<1 synergism",0.249
same,IC50,"[8]; read-out: IC50 (μM) of Chb-M′ in concomitant use with PRIMA-1 (5 μM), with 5 μM PRIMA-1",0.5 µM
same,IC50,[8]; read-out: IC50 (μM) of Chb-M′ single agent administration,> 100 µM
same,IC50,[9],2920 nM
same,IC50,[10],0.62 µM
same,IC50,[11],0.68 µM
same,IC50,[12]; culture time 48 hours,357 nM
same,IC50,[12]; culture time 72 hours,44.6 nM
same,IC50,[13]; culture time 48 hours,1750 nM
same,IC50,[13]; culture time 72 hours,674 nM
